Measured values reported in US6939869B2, “Pyrrolo[2,1-c][1,4] benzodiazepine-indole derivatives, their preparation process, and uses of the same” (Kaohsiung Medical University, priority 2002, dated 2005).

Legend:
[1] = tested on: EKVX (non-small cell lung cancer); assay: NCI in vitro anticancer assay, growth inhibition, EKVX; type: cell-based; details: Homo sapiens, read-out: GI50 (concentration causing 50% cell growth inhibition)
Text: (§1) The tested human tumor cell lines are as follows: (1) CCRF-CEM, K-562, MOLT-4 and SR of leukemia; (2) A549/ATCC, EKVX, HOP-62, HOP-92, NCI-H226, NCI-H23, NCI-H322M, NCI-H460a and NCI-H522 of non-small cell lung cancer; (3) COLO 205, HCC-2998, HCT-116, HCT-15, HT29, KM12 and SW-620 of colon cancer; (4) SF-268, SF-295, SF-539, SNB-19, SNB-75 and U251 of CNS cancer; (5) LOX IMVI, MALME-3M, M14, SK-MEL-2, SK-MEL-28, SK-MEL-5, UACC-257 and UACC-62 of melanoma; (6) IGROV1, OVCAR-3, OVCAR-4, OVCAR-5, OVCAR-8 and SK-OV-3 of ovarian cancer; (7) 786-0, A498, ACHN, CAKI-1, RXF 393, SN12C, TK-10 and UO-31 of renal cancer; (8) […] and DU-145 of prostate cancer; and (9) MCF7, MCF7/ADR-RES, MDA-MB-231/ATCC, HS 578T, MDA-MB-435, MDA-N, BT-549 and T-47D of breast cancer.
(§2) For each compound, the dose-response curves for each tested tumor cell line were measured with five different dose concentrations, and the concentration causing 50% cell growth inhibition (GI50) compared with the control was calculated.

[2] = tested on: NCI-H522 (non-small cell lung cancer); assay: NCI in vitro anticancer assay, growth inhibition, NCI-H522; type: cell-based; details: Homo sapiens, read-out: GI50 (concentration causing 50% cell growth inhibition)
Text: as §1, §2

[3] = tested on: COLO 205 (colon cancer); assay: NCI in vitro anticancer assay, growth inhibition, COLO 205; type: cell-based; details: Homo sapiens, read-out: GI50 (concentration causing 50% cell growth inhibition)
Text: as §1, §2

[4] = tested on: HT29 (colon cancer); assay: NCI in vitro anticancer assay, growth inhibition, HT29; type: cell-based; details: Homo sapiens, HT-29, read-out: GI50 (concentration causing 50% cell growth inhibition)
Text: as §1, §2

[5] = tested on: SF-268 (CNS cancer); assay: NCI in vitro anticancer assay, growth inhibition, SF-268; type: cell-based; details: Homo sapiens, read-out: GI50 (concentration causing 50% cell growth inhibition)
Text: as §1, §2

[6] = tested on: U251 (CNS cancer); assay: NCI in vitro anticancer assay, growth inhibition, U251; type: cell-based; details: Homo sapiens, U-251, read-out: GI50 (concentration causing 50% cell growth inhibition)
Text: as §1, §2

[7] = tested on: RXF 393 (renal cancer); assay: NCI in vitro anticancer assay, growth inhibition, RXF 393; type: cell-based; details: Homo sapiens, read-out: GI50 (concentration causing 50% cell growth inhibition)
Text: as §1, §2

[8] = tested on: SN12C (renal cancer); assay: NCI in vitro anticancer assay, growth inhibition, SN12C; type: cell-based; details: Homo sapiens, read-out: GI50 (concentration causing 50% cell growth inhibition)
Text: as §1, §2

[9] = tested on: 60 human tumor cell lines; assay: NCI in vitro anticancer assay, mean over 60 cell lines; type: cell-based; details: mean values over 60 cell lines tested
Text: as §1, §2
Table 1 summarizes the respective GI50 values and mean GI50 values for the tested compounds in relation to all the 60 tumor cell lines.

[10] = In vivo hollow fiber assay (NCI); details: intraperitoneal (IP) and subcutaneous (SC) samples, total score of 20 or more considered active
Description: The compounds obtained from the above Synthesis Ex. 1 and Synthesis Ex. 2 were further examined in an in vivo hollow fiber assay conducted by the National Cancer Institute (NCI) in the United States, in which an intraperitoneal (IP) sample and a subcutaneous (SC) sample were tested. In this assay, if a tested compound is observed to have a total score of IP score and SC score […]20, it will be considered to be active and to have the potential as an anti-tumor/anti-cancer drug candidate. According to the confidential report of the Developmental Therapeutics Program issued by NCI on Apr.

SMILES | GI50 [1] | GI50 [2] | GI50 [3] | GI50 [4] | GI50 [5] | GI50 [6] | GI50 [7] | GI50 [8] | GI50 ([9]; Homo sapiens, 60 cell) | GI50 [9] | total score of IP score and SC score [10]
COc1cc2c(cc1OC(=O)c1cc3ccccc3[nH]1)N=C[C@@H]1CCCN1C2=O [Synthesis Ex. 1] | 674 nM | 198 nM | 196 nM | 185 nM | 669 nM | 302 nM | 155 nM | 210 nM | ≤ 380 nM | 380 nM | 22
COc1cc2c(cc1OCCCNC(=O)c1cc3ccccc3[nH]1)N=C[C@@H]1CCCN1C2=O [Synthesis Ex. 2] | 604 nM | 14.1 nM | 118 nM | 274 nM | 27 nM | 39.4 nM | 25 nM | 410 nM | – | – | 30
